Source: paper PMC3871595, “Structure Based Identification and Characterization of Flavonoids That Disrupt Human Papillomavirus-16 E6 Function” (PLoS ONE, 2013)

Target: GBF-E6 binding to E6apc2 peptide (Human papillomavirus type 16, UniProt P03126)
Assay: SPR competition, immobilized E6apc2 peptide, GBF-E6 analyte
Parameters: species or system HPV-16
Conditions: 1.6-12.5 µM
Experimental: The E6apc2 peptide was derived from the third zinc finger of the Sp1 protein and incorporates 10 amino acids from the charged helical domain of E6AP ([…]) at its C-terminus. […] In this experiment, E6apc2 was immobilized while E6apc1 control (E6-non-binder) was immobilized in a reference cell.
SPR analysis was performed on a Biacore 3000 instrument. Immobilized GBFE6 [43] was diluted to 30μg/mL in 10 mM sodium acetate, pH 4.0 and 5.0 and immobilized onto the dextran matrix of a CM5 sensor chip (Biacore) using the amine coupling method. All binding experiments were performed at 25 °C in 50 mM phosphate (pH 6.5) containing 200 mM NaCl. Pulses of 10 mM glycine (pH 3.0) were used to regenerate the surfaces between injections. […] SPR data were analyzed using BIAevaluation 4.1 software (Biacore).

Sequence of GBF-E6 binding to E6apc2 peptide (P03126 whole entry): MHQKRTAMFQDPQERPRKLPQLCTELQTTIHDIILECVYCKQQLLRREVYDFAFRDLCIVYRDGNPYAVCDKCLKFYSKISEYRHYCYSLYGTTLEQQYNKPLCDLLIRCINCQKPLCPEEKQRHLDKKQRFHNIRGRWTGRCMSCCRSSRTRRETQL

Structure (SMILES): O=c1cc(-c2ccc(O)c(O)c2)oc2cc(O)cc(O)c12 [luteolin, reference compound]
- competition with E6apc2 peptide for binding to GBF-E6: directly competed with the peptide for binding to GBF-E6
